# Data as given in paper PMC12217461 (Antimicrobial Agents and Chemotherapy, 2025).
# Tests used:
# Format in all cases: cell-based
# E. coli IMP-10 = assay: MIC broth microdilution, recombinant E. coli; details: Escherichia coli, IMP10; IMP-1-like, V67F; TAN/XER fixed at 4 µg/mL, XER 8 µg/mL in MEM-XER; read-out: Minimal inhibitory concentration
# Excerpt: (§1) Genes encoding different acquired IMP-like enzymes suspected to be resistant to XER (blaIMP-6, blaIMP-7, blaIMP-10, blaIMP-14, blaIMP-26, blaIMP-34, and blaIMP-59) were amplified by PCR, and corresponding amplicons were cloned into plasmid pUCP24 and expressed in E. coli TOP10. The following recombinant E. coli strains producing IMP-1, IMP-4, IMP-19, and NDM-1 were used from a previous study ([16]). […] For that purpose, a list of primers was designed and provided as Table S1. […] The nomenclature used in this study was according to the BBL sequence numbering ([52]).
# (§2) To assess the inhibitory potency of XER, susceptibility testing was performed by broth microdilution method, determining the minimal inhibitory concentrations (MICs) of different antibiotics or antibiotic plus β-lactamase inhibitor combinations, including cefepime (FEP), imipenem (IPM), meropenem (MEM), and their combinations with XER (FEP-XER, IPM-XER, and MEM-XER). All data obtained with XER-based combinations were compared with data with TAN-based combinations, FEP-TAN, IPM-TAN, and MEM-TAN ([16]). FEP was purchased from Sigma-Aldrich (Saint-Louis, USA), whereas MEM was from HuiChem (Shanghai, China). […] MICs were determined in triplicate in cation-adjusted Mueller-Hinton (MH) broth (Bio-Rad, Marnes-la-Coquette, France) according to the CLSI guidelines ([53]). The results were interpreted according to the decrease in MIC value for the same antibiotic or combination of the corresponding recombinant strain producing the MBL enzyme. […] In a recent phase I clinical evaluation, XER was combined with cefiderocol. However, as this latter β-lactam substrate is known to be poorly hydrolyzed by IMP enzymes, it was not considered for the evaluation of XER inhibitory activity in this study. Instead, carbapenems were used as a substrate to evaluate the β-lactamase IMP activity in the presence or absence of XER and TAN, as it was deemed more specific for the IMP carbapenemase activity.
# [1] = system: E. coli IMP-14 Mutant 1 (S65G); assay: MIC broth microdilution, recombinant E. coli; details: Escherichia coli; IMP-14 S65G; TAN/XER fixed at 4 µg/mL, XER 8 µg/mL in MEM-XER; read-out: Minimal inhibitory concentration
# Excerpt: as §1, §2
# [2] = system: E. coli IMP-14 Mutant 2 (H174N); assay: MIC broth microdilution, recombinant E. coli; details: Escherichia coli; IMP-14 H174N; TAN/XER fixed at 4 µg/mL, XER 8 µg/mL in MEM-XER; read-out: Minimal inhibitory concentration
# Excerpt: as §1, §2
# [3] = system: E. coli IMP-14 Mutant 3 (N178S); assay: MIC broth microdilution, recombinant E. coli; details: Escherichia coli; IMP-14 N178S; TAN/XER fixed at 4 µg/mL, XER 8 µg/mL in MEM-XER; read-out: Minimal inhibitory concentration
# Excerpt: as §1, §2
# [4] = system: E. coli IMP-14 Mutant 4 (D227Y); assay: MIC broth microdilution, recombinant E. coli; details: Escherichia coli; IMP-14 D227Y; TAN/XER fixed at 4 µg/mL, XER 8 µg/mL in MEM-XER; read-out: Minimal inhibitory concentration
# Excerpt: as §1, §2
# [5] = system: E. coli IMP-14 Mutant 5 (Y233N); assay: MIC broth microdilution, recombinant E. coli; details: Escherichia coli; IMP-14 Y233N; TAN/XER fixed at 4 µg/mL, XER 8 µg/mL in MEM-XER; read-out: Minimal inhibitory concentration
# Excerpt: as §1, §2
# E. coli IMP-14 = assay: MIC broth microdilution, recombinant E. coli; details: Escherichia coli, IMP14; IMP-2-like, multiple substitutions; TAN/XER fixed at 4 µg/mL, XER 8 µg/mL in MEM-XER; read-out: Minimal inhibitory concentration
# Excerpt: as §1, §2
# E. coli IMP-26 = assay: MIC broth microdilution, recombinant E. coli; details: Escherichia coli, IMP26; IMP-4 like, V67F; TAN/XER fixed at 4 µg/mL, XER 8 µg/mL in MEM-XER; read-out: Minimal inhibitory concentration
# Excerpt: as §1, §2
# E. coli IMP-4 = assay: MIC broth microdilution, recombinant E. coli; details: Escherichia coli, IMP4; IMP-4 like; TAN/XER fixed at 4 µg/mL, XER 8 µg/mL in MEM-XER; read-out: Minimal inhibitory concentration
# Excerpt: as §1, §2
# E. coli IMP-59 = assay: MIC broth microdilution, recombinant E. coli; details: Escherichia coli, IMP59; IMP-4 like, N233Y; TAN/XER fixed at 4 µg/mL, XER 8 µg/mL in MEM-XER; read-out: Minimal inhibitory concentration
# Excerpt: as §1, §2
# E. coli IMP-6 = assay: MIC broth microdilution, recombinant E. coli; details: Escherichia coli, IMP6; IMP-1-like, S262G; TAN/XER fixed at 4 µg/mL, XER 8 µg/mL in MEM-XER; read-out: Minimal inhibitory concentration
# Excerpt: as §1, §2
# E. coli NDM-1 = assay: MIC broth microdilution, recombinant E. coli; details: Escherichia coli, NDM1; NDM-1-like; TAN/XER fixed at 4 µg/mL, XER 8 µg/mL in MEM-XER; read-out: Minimal inhibitory concentration
# Excerpt: as §1, §2
# [6] = system: Enterobacter hormaechei (cluster III) SMART 271; assay: microbe, parasite or virus in culture; details: read-out: Minimal inhibitory concentration
# Description: Most isolates and their respective β-lactamase content were characterized by whole-genome sequencing.
# as §2
# E. coli IMP-34 = assay: MIC broth microdilution, recombinant E. coli; details: Escherichia coli, IMP34; IMP-1-like, E126G; TAN/XER fixed at 4 µg/mL, XER 8 µg/mL in MEM-XER; read-out: Minimal inhibitory concentration
# Excerpt: as §1, §2
# E. coli IMP-7 = assay: MIC broth microdilution, recombinant E. coli; details: Escherichia coli, IMP7; IMP-7-like; TAN/XER fixed at 4 µg/mL, XER 8 µg/mL in MEM-XER; read-out: Minimal inhibitory concentration
# Excerpt: as §1, §2
SMILES,MIC (E. coli IMP-10) [µg/mL],MIC [1] [µg/mL],MIC [2] [µg/mL],MIC [3] [µg/mL],MIC [4] [µg/mL],MIC [5] [µg/mL],MIC (E. coli IMP-14) [µg/mL],MIC (E. coli IMP-26) [µg/mL],MIC (E. coli IMP-4) [µg/mL],MIC (E. coli IMP-59) [µg/mL],MIC (E. coli IMP-6) [µg/mL],MIC (E. coli NDM-1) [µg/mL],MIC [6] [µg/mL],MIC (E. coli IMP-34) [µg/mL],MIC (E. coli IMP-7) [µg/mL]
"CO/N=C(\C(=O)N[C@@H]1C(=O)N2C(C(=O)[O-])=C(C[N+]3(C)CCCC3)CS[C@H]12)c1csc(N)n1 [FEP, cefepime]",64,128,64,128,128,16,64,32,8,8,4,4,,,
"C[C@@H](O)[C@H]1C(=O)N2C(C(=O)O)=C(SCCN=CN)C[C@H]12 [IPM, imipenem]",16,8,2,2,8,32,1,8,1,0.5,≤ 0.25,2,0.5,0.5,0.25
"C[C@@H](O)[C@H]1C(=O)N2C(C(=O)O)=C(S[C@@H]3CN[C@H](C(=O)N(C)C)C3)[C@H](C)[C@H]12 [MEM, meropenem]",64,8,4,8,8,1,4,128,8,8,64,2,0.5,2,2
